One test has as its system NCI-H929. The experiment in a line: Inhibition of cell proliferation (CellTiter-Glo or InCell analyzer), NCI-H929. In kind it is cell-based. The following applies: Homo sapiens, 72 h / 3 days, values given as IC50 category. An outline of the steps:
In one
For orientation: In ATP-based viability assays light output follows the ATP content of the culture.

In the next test the test system is Colo205. In words: Inhibition of cell proliferation (CellTiter-Glo or InCell analyzer), Colo205. The following applies: Homo sapiens, COLO 205, 72 h / 3 days, values given as IC50 category. In kind it is cell-based. An outline of the steps: In one
The next test addresses ALK (Homo sapiens, UniProt Q9UM73). The experiment in a line: ALK enzyme assay (HTRF). The following applies: 0.25 nM ALK, 15.0 μM ATP, values given as pIC50 category. In kind it is biochemical. An outline of the steps: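 Final compound range 0.00017 to 10 μM (twelve 1:3 dilutions). Kinase reaction with ATP and biotinylated synthetic peptide runs 120 min at 20° C, stopped with EDTA; phosphotyrosine detected by HTRF after 60 min. Inhibition referenced to DMSO (1%) and EDTA (0.1 M) controls, curve-fitted.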
For orientation: In TR-FRET formats the signal depends on donor and acceptor labels being close together.

Test [1] addresses T1, NIH-3T3 cells overexpressing human IGF-1R (Homo sapiens, UniProt P08069).
T1 construct: expressed in transfected cells; host or cells: NIH-3T3 (mouse fibroblasts)
In words: IGF-1R cellular autophosphorylation (DELFIA). The class given is cell-based. The procedure, abridged:
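Receptor autophosphorylation measured by DELFIA, capturing IGF-1R or IRβ and detecting with europium anti-pTyr, reported as percent of IGF-1- or insulin-stimulated signal. Compounds (30 uM to 1.5 nM) added 2 h before ligand, then 15 min stimulation (IGF-1 30 ng/ml or insulin 3 ug/ml).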

Broadly, the IC50 is the concentration that inhibits the measured activity by half. High values mean lower potency, low ones higher potency.

T1 sequence (P08069 31-1367): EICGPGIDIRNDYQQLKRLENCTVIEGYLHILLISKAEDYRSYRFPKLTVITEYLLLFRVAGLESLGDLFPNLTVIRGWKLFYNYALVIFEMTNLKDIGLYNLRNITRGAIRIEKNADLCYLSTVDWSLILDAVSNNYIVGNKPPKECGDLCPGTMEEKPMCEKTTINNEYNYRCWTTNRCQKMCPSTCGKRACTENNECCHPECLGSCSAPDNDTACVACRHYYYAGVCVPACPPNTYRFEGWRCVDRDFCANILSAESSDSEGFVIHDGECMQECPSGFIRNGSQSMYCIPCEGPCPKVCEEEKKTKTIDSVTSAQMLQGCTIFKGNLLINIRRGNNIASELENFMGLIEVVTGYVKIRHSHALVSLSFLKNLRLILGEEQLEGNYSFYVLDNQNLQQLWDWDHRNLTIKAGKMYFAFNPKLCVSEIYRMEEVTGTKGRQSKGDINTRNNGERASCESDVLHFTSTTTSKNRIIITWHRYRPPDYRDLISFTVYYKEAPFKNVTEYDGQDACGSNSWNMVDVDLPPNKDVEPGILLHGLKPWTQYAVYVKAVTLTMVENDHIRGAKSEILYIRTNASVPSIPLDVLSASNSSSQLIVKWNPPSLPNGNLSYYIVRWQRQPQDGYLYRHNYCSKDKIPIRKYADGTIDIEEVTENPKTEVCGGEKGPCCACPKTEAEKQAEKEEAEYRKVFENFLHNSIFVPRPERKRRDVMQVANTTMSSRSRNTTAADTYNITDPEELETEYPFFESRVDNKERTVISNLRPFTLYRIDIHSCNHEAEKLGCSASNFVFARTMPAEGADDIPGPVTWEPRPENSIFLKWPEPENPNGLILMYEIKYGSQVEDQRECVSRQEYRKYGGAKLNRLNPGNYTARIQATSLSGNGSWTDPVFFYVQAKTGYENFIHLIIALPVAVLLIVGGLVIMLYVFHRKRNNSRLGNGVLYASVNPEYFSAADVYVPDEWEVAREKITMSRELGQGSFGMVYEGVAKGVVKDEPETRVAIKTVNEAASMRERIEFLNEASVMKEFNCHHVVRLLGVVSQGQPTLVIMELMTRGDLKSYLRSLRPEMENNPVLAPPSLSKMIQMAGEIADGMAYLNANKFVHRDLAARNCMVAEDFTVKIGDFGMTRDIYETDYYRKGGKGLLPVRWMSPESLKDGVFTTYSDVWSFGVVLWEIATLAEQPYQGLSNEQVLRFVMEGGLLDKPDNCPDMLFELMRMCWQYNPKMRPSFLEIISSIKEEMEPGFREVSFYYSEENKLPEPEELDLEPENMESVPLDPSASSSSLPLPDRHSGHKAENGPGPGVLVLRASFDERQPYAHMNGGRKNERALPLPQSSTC
Chain of ALK (Q9UM73 19-1620): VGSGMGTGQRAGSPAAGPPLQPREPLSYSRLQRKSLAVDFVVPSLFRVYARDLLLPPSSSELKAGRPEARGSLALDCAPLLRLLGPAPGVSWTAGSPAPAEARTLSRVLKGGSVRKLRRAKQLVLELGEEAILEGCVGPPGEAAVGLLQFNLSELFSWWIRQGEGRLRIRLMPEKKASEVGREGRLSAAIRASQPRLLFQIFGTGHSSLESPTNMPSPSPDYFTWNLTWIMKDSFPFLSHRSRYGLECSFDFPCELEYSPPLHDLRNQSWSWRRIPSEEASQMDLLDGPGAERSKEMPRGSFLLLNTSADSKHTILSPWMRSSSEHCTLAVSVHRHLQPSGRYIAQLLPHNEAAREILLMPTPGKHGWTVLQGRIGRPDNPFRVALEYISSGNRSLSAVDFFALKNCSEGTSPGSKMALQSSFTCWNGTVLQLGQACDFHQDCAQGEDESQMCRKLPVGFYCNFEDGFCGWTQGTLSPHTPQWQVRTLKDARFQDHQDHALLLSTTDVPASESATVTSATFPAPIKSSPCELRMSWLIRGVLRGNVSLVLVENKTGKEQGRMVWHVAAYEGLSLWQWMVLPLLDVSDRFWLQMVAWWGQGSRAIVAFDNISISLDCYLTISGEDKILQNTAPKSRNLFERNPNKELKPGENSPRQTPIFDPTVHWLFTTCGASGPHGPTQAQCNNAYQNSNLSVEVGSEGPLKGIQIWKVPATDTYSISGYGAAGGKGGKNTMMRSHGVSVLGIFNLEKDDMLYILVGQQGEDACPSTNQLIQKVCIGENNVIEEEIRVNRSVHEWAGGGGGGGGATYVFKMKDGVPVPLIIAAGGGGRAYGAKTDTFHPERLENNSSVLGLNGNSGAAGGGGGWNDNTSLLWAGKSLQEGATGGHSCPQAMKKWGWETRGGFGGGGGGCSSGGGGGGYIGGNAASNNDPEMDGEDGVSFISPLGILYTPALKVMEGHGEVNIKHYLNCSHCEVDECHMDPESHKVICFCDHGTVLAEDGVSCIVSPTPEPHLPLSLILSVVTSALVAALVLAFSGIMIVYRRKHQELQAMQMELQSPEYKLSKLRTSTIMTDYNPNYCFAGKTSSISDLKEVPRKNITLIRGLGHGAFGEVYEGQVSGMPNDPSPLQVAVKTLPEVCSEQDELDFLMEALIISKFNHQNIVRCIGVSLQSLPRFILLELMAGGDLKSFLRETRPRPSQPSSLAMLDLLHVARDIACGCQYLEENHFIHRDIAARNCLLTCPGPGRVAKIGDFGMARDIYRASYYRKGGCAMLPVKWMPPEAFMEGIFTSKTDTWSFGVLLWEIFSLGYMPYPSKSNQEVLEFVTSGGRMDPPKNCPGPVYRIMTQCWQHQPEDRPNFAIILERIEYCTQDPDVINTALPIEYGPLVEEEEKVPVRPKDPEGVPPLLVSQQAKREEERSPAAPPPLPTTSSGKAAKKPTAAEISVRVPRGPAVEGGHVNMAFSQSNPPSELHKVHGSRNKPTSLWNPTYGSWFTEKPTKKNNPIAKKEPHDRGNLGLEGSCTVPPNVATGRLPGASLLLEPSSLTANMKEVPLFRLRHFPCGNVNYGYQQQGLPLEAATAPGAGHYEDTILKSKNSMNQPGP

Take `CCNC(=O)c1c(F)cc(F)cc1Nc1nc(Nc2cc3c(cc2OC)CCN3C(=O)CN(C)C)nc2[nH]ccc12` [Example 151, 2-[(2-{[1-(N,N-dimethylglycyl)-5-(methyloxy)-2,3-dihydro-1H-indol-6-yl]amino}-1H-pyrrolo[2,3-d]pyrimidin-4-yl)amino]-N-ethyl-4,6-difluorobenzamide]: the half-inhibitory concentration (IC50) was 0.25 to 1 µM with NCI-H929, 0.25 to 1 µM with Colo205, 0.000251 to 0.001 µM against ALK and 0.1 to 0.5 µM in test [1].
`CCCNC(=O)c1c(F)cc(F)cc1Nc1nc(Nc2cc3c(cc2OC)CCN3C(=O)CN(C)C)nc2[nH]ccc12` [Example 152, 2-[(2-{[1-(N,N-dimethylglycyl)-5-(methyloxy)-2,3-dihydro-1H-indol-6-yl]amino}-1H-pyrrolo[2,3-d]pyrimidin-4-yl)amino]-4,6-difluoro-N-propylbenzamide]: the IC50 in the test with NCI-H929 was 0.25 to 1 µM; in the test on Colo205, 0.25 to 1 µM; against ALK, 0.000251 to 0.001 µM; in test [1] it was 0.1 to 0.5 µM.
With `COc1cc2c(cc1Nc1nc(Nc3ccc(F)c(F)c3C(=O)NC(C)C)c3cc[nH]c3n1)N(C(=O)CN(C)C)CC2` [Example 161, 6-[(2-{[1-(N,N-dimethylglycyl)-5-(methyloxy)-2,3-dihydro-1H-indol-6-yl]amino}-1H-pyrrolo[2,3-d]pyrimidin-4-yl)amino]-2,3-difluoro-N-(1-methylethyl)benzamide], the IC50 with NCI-H929 is 0.25 to 1 µM; with Colo205, greater than 1 µM; on ALK, 0.00126 to 0.00398 µM; in test [1] it was 0.1 to 0.5 µM.
For `CCN(C)CC(=O)N1CCc2cc(OC)c(Nc3nc(Nc4cccc(F)c4C(=O)NC)c4cc[nH]c4n3)cc21` [Example 165, 2-[(2-{[1-(N-ethyl-N-methylglycyl)-5-(methyloxy)-2,3-dihydro-1H-indol-6-yl]amino}-1H-pyrrolo[2,3-d]pyrimidin-4-yl)amino]-6-fluoro-N-methylbenzamide] the same measures were 0.25 to 1 µM, greater than 1 µM, 0.00126 to 0.00398 µM and 0.1 to 0.5 µM.
As to `CCCN(C)CC(=O)N1CCc2cc(OC)c(Nc3nc(Nc4cccc(F)c4C(N)=O)c4cc[nH]c4n3)cc21` [Example 168, 2-fluoro-6-[(2-{[5-(methyloxy)-1-(N-methyl-N-propylglycyl)-2,3-dihydro-1H-indol-6-yl]amino}-1H-pyrrolo[2,3-d]pyrimidin-4-yl)amino]benzamide], the IC50 with NCI-H929 is less than 0.25 µM; in the test on Colo205 it was less than 0.25 µM; against ALK, 0.00126 to 0.00398 µM; in test [1] it was less than 0.1 µM.
Consider `COc1cc2c(cc1Nc1nc(Nc3cc(Cl)cc(F)c3C(N)=O)c3cc[nH]c3n1)N(C(=O)CN1CCCC1)CC2` [Example 175, 4-chloro-2-fluoro-6-[(2-{[5-(methyloxy)-1-(1-pyrrolidinylacetyl)-2,3-dihydro-1H-indol-6-yl]amino}-1H-pyrrolo[2,3-d]pyrimidin-4-yl)amino]benzamide], for which the IC50 was less than 0.25 µM with NCI-H929, 0.25 to 1 µM in the test on Colo205, 0.00126 to 0.00398 µM on ALK and less than 0.1 µM in test [1].
For the molecule `COc1cc2c(cc1Nc1nc(Nc3cc(F)cc(F)c3C(N)=O)c3cc[nH]c3n1)N(C(=O)CN(C)C)CCC2` [Example 178, 2-[(2-{[1-(N,N-dimethylglycyl)-6-(methyloxy)-1,2,3,4-tetrahydro-7-quinolinyl]amino}-1H-pyrrolo[2,3-d]pyrimidin-4-yl)amino]-4,6-difluorobenzamide], the IC50 with NCI-H929 is less than 0.25 µM; in the test with Colo205, less than 0.25 µM; at ALK, 0.000251 to 0.001 µM; in test [1], less than 0.1 µM.
Regarding `CNC(=O)c1c(F)cc(F)cc1Nc1nc(Nc2cc3c(cc2OC)CCCN3C(=O)CN(C)C)nc2[nH]ccc12` [Example 179, 2-[(2-{[1-(N,N-dimethylglycyl)-6-(methyloxy)-1,2,3,4-tetrahydro-7-quinolinyl]amino}-1H-pyrrolo[2,3-d]pyrimidin-4-yl)amino]-4,6-difluoro-N-methylbenzamide], the IC50 in the test on NCI-H929 is less than 0.25 µM; with Colo205 it was less than 0.25 µM; at ALK, 0.000251 to 0.001 µM; in test [1], less than 0.1 µM.
As to `CCNC(=O)c1c(F)cc(F)cc1Nc1nc(Nc2cc3c(cc2OC)CCCN3C(=O)CN(C)C)nc2[nH]ccc12` [Example 180, 2-[(2-{[1-(N,N-dimethylglycyl)-6-(methyloxy)-1,2,3,4-tetrahydro-7-quinolinyl]amino}-1H-pyrrolo[2,3-d]pyrimidin-4-yl)amino]-N-ethyl-4,6-difluorobenzamide], the IC50 in the test with NCI-H929 was 0.25 to 1 µM; with Colo205, 0.25 to 1 µM; at ALK, 0.000251 to 0.001 µM; in test [1], less than 0.1 µM.
`COc1cc2c(cc1Nc1nc(Nc3cccc(F)c3C(N)=O)c3cc[nH]c3n1)N(C(=O)CN1CCOCC1)CC2` [Example 185, 2-fluoro-6-[(2-{[5-(methyloxy)-1-(4-morpholinylacetyl)-2,3-dihydro-1H-indol-6-yl]amino}-1H-pyrrolo[2,3-d]pyrimidin-4-yl)amino]benzamide]: the IC50 in the test on NCI-H929 was less than 0.25 µM; with Colo205, greater than 1 µM; at ALK it was 0.00501 to 0.2 µM; in test [1] it was less than 0.1 µM.
Turning to `COc1cc2c(cc1Nc1nc(Nc3cccc(F)c3C(N)=O)c3cc[nH]c3n1)N(C(=O)CN1CCN(C(C)C)CC1)CC2` [Example 186, 2-fluoro-6-[(2-{[1-{[4-(1-methylethyl)-1-piperazinyl]acetyl}-5-(methyloxy)-2,3-dihydro-1H-indol-6-yl]amino}-1H-pyrrolo[2,3-d]pyrimidin-4-yl)amino]benzamide], the IC50 with NCI-H929 is 0.25 to 1 µM; in the test on Colo205, greater than 1 µM; at ALK it was 0.00501 to 0.2 µM; in test [1], 0.1 to 0.5 µM.
Consider `COc1cc2c(cc1Nc1nc(Nc3cccc(F)c3C(N)=O)c3cc[nH]c3n1)N(C(=O)CCN1CCOCC1)CC2` [Example 187, 2-fluoro-6-{[2-({5-(methyloxy)-1-[3-(4-morpholinyl)propanoyl]-2,3-dihydro-1H-indol-6-yl}amino)-1H-pyrrolo[2,3-d]pyrimidin-4-yl]amino}benzamide], for which the IC50 is less than 0.25 µM with NCI-H929, greater than 1 µM in the test on Colo205, 0.00126 to 0.00398 µM against ALK and 0.1 to 0.5 µM in test [1].
On to `COc1cc2c(cc1Nc1nc(Nc3cccc(F)c3C(N)=O)c3cc[nH]c3n1)N(C(=O)CCN1CCN(C(C)C)CC1)CC2` [Example 188, 2-fluoro-6-[(2-{[1-{3-[4-(1-methylethyl)-1-piperazinyl]propanoyl}-5-(methyloxy)-2,3-dihydro-1H-indol-6-yl]amino}-1H-pyrrolo[2,3-d]pyrimidin-4-yl)amino]benzamide], for which the half-maximal inhibitory concentration (IC50) in the test with NCI-H929 was 0.25 to 1 µM; with Colo205 it was 0.25 to 1 µM; at ALK, 0.00501 to 0.2 µM; in test [1] it was greater than 0.5 µM.
Consider `COc1cc2c(cc1Nc1nc(Nc3cc(F)cc(F)c3C(N)=O)c3cc[nH]c3n1)N(C(=O)CN(C)C)CC2` [Example 189, 2-[(2-{[1-(N,N-dimethylglycyl)-5-(methyloxy)-2,3-dihydro-1H-indol-6-yl]amino}-1H-pyrrolo[2,3-d]pyrimidin-4-yl)amino]-4,6-difluorobenzamide], for which the IC50 was less than 0.25 µM in the test on NCI-H929, less than 0.25 µM in the test on Colo205, 0.00126 to 0.00398 µM against ALK and less than 0.1 µM in test [1].
With `CNC(=O)c1c(F)cc(F)cc1Nc1nc(Nc2cc3c(cc2OC)CCN3C(=O)CN(C)C)nc2[nH]ccc12` [Example 190, 2-[(2-{[1-(N,N-dimethylglycyl)-5-(methyloxy)-2,3-dihydro-1H-indol-6-yl]amino}-1H-pyrrolo[2,3-d]pyrimidin-4-yl)amino]-4,6-difluoro-N-methylbenzamide], the IC50 in the test on NCI-H929 is less than 0.25 µM; with Colo205, 0.25 to 1 µM; against ALK, 0.000251 to 0.001 µM; in test [1], less than 0.1 µM.
For `CCCN(CCC)[C@@H](C)C(=O)N1CCc2cc(OC)c(Nc3nc(Nc4cccc(F)c4C(=O)NC)c4cc[nH]c4n3)cc21` [Example 191, 2-[(2-{[1-(N,N-dipropyl-L-alanyl)-5-(methyloxy)-2,3-dihydro-1H-indol-6-yl]amino}-1H-pyrrolo[2,3-d]pyrimidin-4-yl)amino]-6-fluoro-N-methylbenzamide] the same measures were greater than 1 µM, greater than 1 µM, 0.00501 to 0.2 µM and 0.1 to 0.5 µM.
For the molecule `CCCN(CCC)[C@@H](C)C(=O)N1CCc2cc(OC)c(Nc3nc(Nc4cccc(F)c4C(N)=O)c4cc[nH]c4n3)cc21` [Example 192, 2-[(2-{[1-(N,N-dipropyl-L-alanyl)-5-(methyloxy)-2,3-dihydro-1H-indol-6-yl]amino}-1H-pyrrolo[2,3-d]pyrimidin-4-yl)amino]-6-fluorobenzamide], the IC50 is less than 0.25 µM in the test on NCI-H929, 0.25 to 1 µM in the test on Colo205, 0.00501 to 0.2 µM on ALK and less than 0.1 µM in test [1].
Consider `CNC(=O)c1c(F)cccc1Nc1nc(Nc2cc3c(cc2OC)CCN3C(=O)C(C)(C)O)nc2[nH]ccc12` [Example 193, 2-fluoro-6-[(2-{[1-(2-hydroxy-2-methylpropanoyl)-5-(methyloxy)-2,3-dihydro-1H-indol-6-yl]amino}-1H-pyrrolo[2,3-d]pyrimidin-4-yl)amino]-N-methylbenzamide], for which the IC50 with NCI-H929 was greater than 1 µM; in the test with Colo205, greater than 1 µM; against ALK, 0.00501 to 0.2 µM; in test [1], greater than 0.5 µM.
